Measured values: ChEMBL document CHEMBL4842380, “Enhanced Properties of a Benzimidazole Benzylpyrazole Lysine Demethylase Inhibitor: Mechanism-of-Action, Binding Site Analysis, and Activity in Cellular Models of Prostate Cancer” (J Med Chem, 2021)
The source made the active and inactive calls. The calls are words filed in the database; no cut-off is given here.

How the values were obtained:
[1] = target: T1, Lysine-specific demethylase 4E (Homo sapiens) (UniProt B2RXH2); test: Inhibition of N-terminal His6-tagged KDM4E (1 to 337 residues) (unknown origin) expressed in Escherichia coli BL21 (DE3)-R3 at highest concentration preincubated for 10 mins followed by substrate addition by fluorescence based FDH-coupled assay
T1 sequence (whole entry): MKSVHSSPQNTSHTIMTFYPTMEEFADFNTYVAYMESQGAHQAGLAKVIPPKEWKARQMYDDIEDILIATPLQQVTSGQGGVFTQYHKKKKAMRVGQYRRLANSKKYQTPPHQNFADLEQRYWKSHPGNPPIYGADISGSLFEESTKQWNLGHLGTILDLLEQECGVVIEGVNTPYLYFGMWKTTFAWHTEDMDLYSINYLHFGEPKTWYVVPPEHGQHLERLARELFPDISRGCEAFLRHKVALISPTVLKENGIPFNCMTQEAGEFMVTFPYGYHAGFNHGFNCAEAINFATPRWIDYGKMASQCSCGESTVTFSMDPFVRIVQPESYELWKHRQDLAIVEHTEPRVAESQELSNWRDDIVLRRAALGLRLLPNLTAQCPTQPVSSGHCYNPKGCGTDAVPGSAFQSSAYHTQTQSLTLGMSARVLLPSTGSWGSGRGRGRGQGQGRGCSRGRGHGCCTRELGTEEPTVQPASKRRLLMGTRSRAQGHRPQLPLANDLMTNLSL

[2] = target: T2, Lysine-specific demethylase 4E (Homo sapiens, UniProt B2RXH2); test: Inhibition of N-terminal His6-tagged KDM4E (1 to 337 residues) (unknown origin) expressed in Escherichia coli BL21 (DE3)-R3 preincubated for 10 mins followed by substrate addition by fluorescence based FDH-coupled assay
T2 sequence (B2RXH2 whole entry): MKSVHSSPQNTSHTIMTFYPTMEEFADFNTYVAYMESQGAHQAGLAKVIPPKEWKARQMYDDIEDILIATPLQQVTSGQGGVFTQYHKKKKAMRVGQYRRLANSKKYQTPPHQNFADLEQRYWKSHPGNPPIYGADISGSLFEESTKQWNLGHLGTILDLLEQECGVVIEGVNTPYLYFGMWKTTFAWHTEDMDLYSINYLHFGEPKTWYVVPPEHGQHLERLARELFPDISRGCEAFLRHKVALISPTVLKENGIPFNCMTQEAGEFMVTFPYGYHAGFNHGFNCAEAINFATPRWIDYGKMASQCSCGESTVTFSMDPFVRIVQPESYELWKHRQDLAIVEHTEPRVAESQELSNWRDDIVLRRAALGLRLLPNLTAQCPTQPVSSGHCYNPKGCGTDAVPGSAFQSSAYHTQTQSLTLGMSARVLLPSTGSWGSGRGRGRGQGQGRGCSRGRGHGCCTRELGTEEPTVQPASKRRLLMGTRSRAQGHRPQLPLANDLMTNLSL

[3] = system: DU-145; test: Cytotoxicity against human DU-145 cells assessed as growth inhibition after 48 hrs by alamar blue assay; format: functional
[4] = Cytotoxicity against human prostate epithelial cells assessed as growth inhibition after 48 hrs by alamar blue assay; format: cell-based, Prostate cell
[5] = system: DU-145; test: Cytotoxicity against human DU-145 cells assessed as remaining cell viability after 48 hrs by alamar blue assay; format: functional
[6] = system: PC-3; test: Cytotoxicity against human PC-3 cells assessed as growth inhibition after 48 hrs by alamar blue assay; format: functional
[7] = Cytotoxicity against human LnCaP cells assessed as remaining cell viability after 48 hrs by alamar blue assay; format: functional, Prostate cell
[8] = target: T2, Lysine-specific demethylase 4E; test: Inhibition of N-terminal His6-tagged KDM4E (1 to 337 residues) (unknown origin) expressed in Escherichia coli BL21 (DE3)-R3 preincubated for 10 mins followed by alpha-KG addition after CTH addition for 2 hrs by ELISA
[9] = system: LNCaP; test: Cytotoxicity against human LnCaP cells assessed as growth inhibition after 48 hrs by alamar blue assay; format: functional
[10] = Cytotoxicity against human prostate epithelial cells assessed as remaining cell viability after 48 hrs by alamar blue assay; format: functional
[11] = system: PC-3; test: Cytotoxicity against human PC-3 cells assessed as remaining cell viability after 48 hrs by alamar blue assay; format: functional
[12] = compound: O=C(O)c1ccnc(C(=O)O)c1; test: Inhibition of N-terminal His6-tagged KDM4E (1 to 337 residues) (unknown origin) expressed in Escherichia coli BL21 (DE3)-R3 assessed as Km at 1 uM in presence of alpha-KG by Michaelis-Menten analysis (reference value: 22 uM); details: Homo sapiens
[13] = compound: Cc1nn(-c2nc3ccccc3[nH]2)c(O)c1-c1ccccc1; test: Inhibition of N-terminal His6-tagged KDM4E (1 to 337 residues) (unknown origin) expressed in Escherichia coli BL21 (DE3)-R3 assessed as Km at 1 uM in presence of alpha-KG by Michaelis-Menten analysis (reference value: 12 uM); details: Homo sapiens
[14] = compound: Cc1nn(-c2nc3ccccc3[nH]2)c(O)c1-c1ccccc1; test: Inhibition of N-terminal His6-tagged KDM4E (1 to 337 residues) (unknown origin) expressed in Escherichia coli BL21 (DE3)-R3 assessed as Km at 10 uM in presence of H3K9me3 by Michaelis-Menten analysis (reference value: 11 uM); details: Homo sapiens
[15] = compound: Cc1nn(-c2nc3ccccc3[nH]2)c(O)c1-c1ccccc1; test: Inhibition of N-terminal His6-tagged KDM4E (1 to 337 residues) (unknown origin) expressed in Escherichia coli BL21 (DE3)-R3 assessed as Vmax at 1 uM in presence of H3K9me3 by Michaelis-Menten analysis (reference value: 21 /s); details: Homo sapiens
[16] = compound: O=C(O)c1ccnc(C(=O)O)c1; test: Inhibition of N-terminal His6-tagged KDM4E (1 to 337 residues) (unknown origin) expressed in Escherichia coli BL21 (DE3)-R3 assessed as Vmax at 1 uM in presence of alpha-KG by Michaelis-Menten analysis (reference value: 42 /s); details: Homo sapiens
[17] = compound: Cc1nn(-c2nc3ccccc3[nH]2)c(O)c1-c1ccccc1; test: Inhibition of N-terminal His6-tagged KDM4E (1 to 337 residues) (unknown origin) expressed in Escherichia coli BL21 (DE3)-R3 assessed as Km at 5 uM in presence of H3K9me3 by Michaelis-Menten analysis (reference value: 11 uM); details: Homo sapiens
[18] = compound: Cc1nn(-c2nc3ccccc3[nH]2)c(O)c1-c1ccccc1; test: Inhibition of N-terminal His6-tagged KDM4E (1 to 337 residues) (unknown origin) expressed in Escherichia coli BL21 (DE3)-R3 assessed as Vmax at 1 uM in presence of alpha-KG by Michaelis-Menten analysis (reference value: 35 /s); details: Homo sapiens
[19] = compound: Cc1nn(-c2nc3ccccc3[nH]2)c(O)c1-c1ccccc1; test: Inhibition of N-terminal His6-tagged KDM4E (1 to 337 residues) (unknown origin) expressed in Escherichia coli BL21 (DE3)-R3 assessed as Km at 5 uM in presence of alpha-KG by Michaelis-Menten analysis (reference value: 12 uM); details: Homo sapiens
[20] = compound: Cc1nn(-c2nc3ccccc3[nH]2)c(O)c1-c1ccccc1; test: Inhibition of N-terminal His6-tagged KDM4E (1 to 337 residues) (unknown origin) expressed in Escherichia coli BL21 (DE3)-R3 assessed as Km at 10 uM in presence of alpha-KG by Michaelis-Menten analysis (reference value: 12 uM); details: Homo sapiens
[21] = compound: Cc1nn(-c2nc3ccccc3[nH]2)c(O)c1-c1ccccc1; test: Inhibition of N-terminal His6-tagged KDM4E (1 to 337 residues) (unknown origin) expressed in Escherichia coli BL21 (DE3)-R3 assessed as Vmax at 10 uM in presence of alpha-KG by Michaelis-Menten analysis (reference value: 35 /s); details: Homo sapiens
[22] = compound: Cc1nn(-c2nc3ccccc3[nH]2)c(O)c1-c1ccccc1; test: Inhibition of N-terminal His6-tagged KDM4E (1 to 337 residues) (unknown origin) expressed in Escherichia coli BL21 (DE3)-R3 assessed as Vmax at 5 uM in presence of H3K9me3 by Michaelis-Menten analysis (reference value: 21 /s); details: Homo sapiens
[23] = compound: Cc1nn(-c2nc3ccccc3[nH]2)c(O)c1-c1ccccc1; test: Inhibition of N-terminal His6-tagged KDM4E (1 to 337 residues) (unknown origin) expressed in Escherichia coli BL21 (DE3)-R3 assessed as Vmax at 5 uM in presence of alpha-KG by Michaelis-Menten analysis (reference value: 35 /s); details: Homo sapiens
[24] = compound: Cc1nn(-c2nc3ccccc3[nH]2)c(O)c1-c1ccccc1; test: Inhibition of N-terminal His6-tagged KDM4E (1 to 337 residues) (unknown origin) expressed in Escherichia coli BL21 (DE3)-R3 assessed as Km at 1 uM in presence of H3K9me3 by Michaelis-Menten analysis (reference value: 11 uM); details: Homo sapiens
[25] = compound: Cc1nn(-c2nc3ccccc3[nH]2)c(O)c1-c1ccccc1; test: Inhibition of N-terminal His6-tagged KDM4E (1 to 337 residues) (unknown origin) expressed in Escherichia coli BL21 (DE3)-R3 assessed as Vmax at 10 uM in presence of H3K9me3 by Michaelis-Menten analysis (reference value: 21 /s); details: Homo sapiens

With `Cc1cc(C)n(-c2nc3ccccc3[nH]2)n1` the inhibition [1] was “inactive”.

`COC(=O)CCc1c(C)nn(-c2nc3ccccc3[nH]2)c1O` showed an IC50 [2] of 72 µM.

With `COC(=O)Cc1cc(O)n(-c2nc3ccccc3[nH]2)n1` the GI50 [3] was > 1000 µM, the GI50 at 48 h [4] was > 500 µM and the IC50 [2] was 15 µM. The Activity [5] was 69%, the GI50 [6] was > 1000 µM and the Activity [7] was 15%. The IC50 [8] was 581 µM, the GI50 [9] was 410 µM and the Activity [10] was 12%. For the same molecule, the Activity [11] was 79%.

For `Cc1nn(-c2nc3ccccc3[nH]2)c(O)c1CCCN(C)C`, the IC50 [2] was 70 µM.

Molecule `COC(=O)CCc1nn(-c2nc3ccccc3[nH]2)c(O)c1C` has an IC50 [2] of 106 µM.

Molecule `Cc1cc(N)n(-c2nc3ccccc3[nH]2)n1` has an IC50 [2] of 199 µM.

For `Cc1nn(-c2nc3ccccc3[nH]2)c(O)c1CCC(=O)N(C)C`, the IC50 [2] was 16 µM.

`C#CCc1c(C)nn(-c2nc3ccccc3[nH]2)c1O` showed an IC50 [2] of 5 µM.

Molecule `CNC(=O)CCc1c(C)nn(-c2nc3ccccc3[nH]2)c1O` has an IC50 [2] of 41 µM.

`CNCCCc1c(C)nn(-c2nc3ccccc3[nH]2)c1O` gave an IC50 [2] of 9 µM.

With `CCc1nn(-c2nc3ccccc3[nH]2)c(O)c1-c1ccccc1` the IC50 [2] was 5 µM.

`Cc1nn(-c2nc3ccccc3s2)c(O)c1-c1ccccc1` showed an IC50 [2] of 35 µM.

`Cc1ccc(-c2c(C)nn(-c3nc4ccccc4[nH]3)c2O)cc1` gave an IC50 [2] of 27 µM.

With `Brc1cnn(-c2nc3ccccc3[nH]2)c1` the inhibition [1] was “inactive”.

For `Cc1nn(-c2nc3ccccc3[nH]2)c(O)c1Cc1ccccc1`, the IC50 [2] was 27 µM.

B1: Lysine-specific demethylase 4E (Homo sapiens), B2RXH2 (protein)
chain: MKSVHSSPQNTSHTIMTFYPTMEEFADFNTYVAYMESQGAHQAGLAKVIPPKEWKARQMYDDIEDILIATPLQQVTSGQGGVFTQYHKKKKAMRVGQYRRLANSKKYQTPPHQNFADLEQRYWKSHPGNPPIYGADISGSLFEESTKQWNLGHLGTILDLLEQECGVVIEGVNTPYLYFGMWKTTFAWHTEDMDLYSINYLHFGEPKTWYVVPPEHGQHLERLARELFPDISRGCEAFLRHKVALISPTVLKENGIPFNCMTQEAGEFMVTFPYGYHAGFNHGFNCAEAINFATPRWIDYGKMASQCSCGESTVTFSMDPFVRIVQPESYELWKHRQDLAIVEHTEPRVAESQELSNWRDDIVLRRAALGLRLLPNLTAQCPTQPVSSGHCYNPKGCGTDAVPGSAFQSSAYHTQTQSLTLGMSARVLLPSTGSWGSGRGRGRGQGQGRGCSRGRGHGCCTRELGTEEPTVQPASKRRLLMGTRSRAQGHRPQLPLANDLMTNLSL
B1 gave a Km [12] of 69 µM, a Km [13] of 13 µM and a Km [14] of 19 µM. The Vmax [15] was 21 s⁻¹, the Vmax [16] was 37 s⁻¹ and the Km [17] was 14 µM. For the same molecule, the Vmax [18] was 31 s⁻¹, the Km [19] was 8 µM and the Km [20] was 2 µM. The Vmax [21] was 12 s⁻¹, the Vmax [22] was 14 s⁻¹ and the Vmax [23] was 24 s⁻¹. For the same molecule, the Km [24] was 14 µM and the Vmax [25] was 5 s⁻¹.
